Laboratory results as given in the kinase profiling compilation of Christmann-Franck et al. (2016).

Assays:
Assay in all cases: KINOMEscan competition binding
Settings in all cases: compound 10.0 µM
ADCK4 (human) = ADCK4 (human) (UniProt Q96D53)
AURKA (human) = AURKA (human) (UniProt O14965)
CAMK2D (human) = CAMK2D (human) (UniProt Q13557)
CAMK4 (human) = CAMK4 (human) (UniProt Q16566)
CDC2L2 (human) = CDC2L2 (human) (UniProt Q9UQ88)
CHEK1 (human) = CHEK1 (human) (UniProt O14757)
CHUK (human) = CHUK (human) (UniProt O15111)
CSNK1A1L (human) = CSNK1A1L (human) (UniProt Q8N752)
DCLK3 (human) = DCLK3 (human) (UniProt Q9C098)
DCLK3 (human), sequence (Q9C098 whole entry, looked up): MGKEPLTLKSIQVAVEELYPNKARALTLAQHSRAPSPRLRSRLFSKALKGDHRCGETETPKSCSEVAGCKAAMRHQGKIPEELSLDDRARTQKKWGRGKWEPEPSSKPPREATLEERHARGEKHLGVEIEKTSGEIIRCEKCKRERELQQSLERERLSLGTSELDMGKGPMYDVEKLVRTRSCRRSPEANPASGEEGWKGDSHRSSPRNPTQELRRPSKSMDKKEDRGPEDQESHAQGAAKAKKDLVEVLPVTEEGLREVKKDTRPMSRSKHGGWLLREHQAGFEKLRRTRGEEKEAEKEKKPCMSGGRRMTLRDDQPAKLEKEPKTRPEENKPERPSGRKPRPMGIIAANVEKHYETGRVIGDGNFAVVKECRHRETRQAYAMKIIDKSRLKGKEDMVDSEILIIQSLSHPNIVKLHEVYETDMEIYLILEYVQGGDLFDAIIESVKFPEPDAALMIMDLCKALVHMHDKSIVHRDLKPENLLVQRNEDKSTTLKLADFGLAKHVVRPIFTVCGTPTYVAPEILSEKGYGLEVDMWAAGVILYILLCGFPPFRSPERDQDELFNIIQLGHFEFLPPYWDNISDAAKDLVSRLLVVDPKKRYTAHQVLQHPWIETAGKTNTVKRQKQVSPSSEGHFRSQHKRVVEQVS

EPHA1 (human) = EPHA1 (human) (UniProt P21709)
FLT4 (human) = FLT4 (human) (UniProt P35916)
HCK (human) = HCK (human) (UniProt P08631)
IGF1R (human) = IGF1R (human) (UniProt P08069)
IGF1R (human), sequence (P08069 whole entry, looked up): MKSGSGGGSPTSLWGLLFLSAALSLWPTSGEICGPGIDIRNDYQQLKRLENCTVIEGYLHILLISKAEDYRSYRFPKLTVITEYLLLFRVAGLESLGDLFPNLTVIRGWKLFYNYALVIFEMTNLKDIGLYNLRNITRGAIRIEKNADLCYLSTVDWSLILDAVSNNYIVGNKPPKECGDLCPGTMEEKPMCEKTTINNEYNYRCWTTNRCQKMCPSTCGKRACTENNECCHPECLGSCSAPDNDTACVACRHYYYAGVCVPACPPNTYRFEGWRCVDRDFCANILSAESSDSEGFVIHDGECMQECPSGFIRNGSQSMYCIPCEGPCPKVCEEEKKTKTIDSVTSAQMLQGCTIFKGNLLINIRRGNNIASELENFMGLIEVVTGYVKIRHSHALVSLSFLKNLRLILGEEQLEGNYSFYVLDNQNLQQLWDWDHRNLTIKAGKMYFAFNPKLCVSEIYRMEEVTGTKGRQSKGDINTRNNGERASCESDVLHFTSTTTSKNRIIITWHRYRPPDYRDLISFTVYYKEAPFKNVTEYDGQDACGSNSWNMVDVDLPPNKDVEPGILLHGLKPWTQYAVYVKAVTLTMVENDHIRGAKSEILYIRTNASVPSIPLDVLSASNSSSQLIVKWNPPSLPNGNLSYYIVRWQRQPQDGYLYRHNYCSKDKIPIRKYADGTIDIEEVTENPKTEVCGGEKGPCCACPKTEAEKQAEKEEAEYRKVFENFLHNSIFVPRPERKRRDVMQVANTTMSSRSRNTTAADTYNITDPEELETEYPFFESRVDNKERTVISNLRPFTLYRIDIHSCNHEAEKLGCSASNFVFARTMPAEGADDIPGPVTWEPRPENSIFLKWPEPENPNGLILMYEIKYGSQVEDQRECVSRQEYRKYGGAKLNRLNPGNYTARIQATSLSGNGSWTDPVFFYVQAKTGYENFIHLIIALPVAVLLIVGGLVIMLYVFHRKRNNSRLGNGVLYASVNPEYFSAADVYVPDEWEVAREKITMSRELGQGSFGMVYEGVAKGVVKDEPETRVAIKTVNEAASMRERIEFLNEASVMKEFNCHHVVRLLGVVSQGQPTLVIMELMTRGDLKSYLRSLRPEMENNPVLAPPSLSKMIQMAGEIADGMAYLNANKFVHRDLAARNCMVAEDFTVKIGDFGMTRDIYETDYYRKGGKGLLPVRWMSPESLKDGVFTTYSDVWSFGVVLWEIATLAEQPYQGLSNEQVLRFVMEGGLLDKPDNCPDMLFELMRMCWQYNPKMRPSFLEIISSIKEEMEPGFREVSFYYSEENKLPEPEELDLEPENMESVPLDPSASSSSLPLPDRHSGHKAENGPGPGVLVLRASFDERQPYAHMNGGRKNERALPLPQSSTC

INSRR (human) = INSRR (human) (UniProt P14616)
LTK (human) = LTK (human) (UniProt P29376)
MAP4K4 (human) = MAP4K4 (human) (UniProt O95819)
MAPK1 (human) = MAPK1 (human) (UniProt P28482)
MAPK10 (human) = MAPK10 (human) (UniProt P53779)
MAPK11 (human) = MAPK11 (human) (UniProt Q15759)
MAPK12 (human) = MAPK12 (human) (UniProt P53778)
MAPK8 (human) = MAPK8 (human) (UniProt P45983)
MINK1 (human) = MINK1 (human) (UniProt Q8N4C8)
MLTK (human) = MLTK (human) (UniProt Q9NYL2)
MST1R (human) = MST1R (human) (UniProt Q04912)
MYLK2 (human) = MYLK2 (human) (UniProt Q9H1R3)
PAK3 (human) = PAK3 (human) (UniProt O75914)
PAK7 (human) = PAK7 (human) (UniProt Q9P286)
PHKG2 (human) = PHKG2 (human) (UniProt P15735)
PIM3 (human) = PIM3 (human) (UniProt Q86V86)
PRKAA1 (human) = PRKAA1 (human) (UniProt Q13131)
PTK2B (human) = PTK2B (human) (UniProt Q14289)
PTK2B (human), sequence (Q14289 whole entry, looked up): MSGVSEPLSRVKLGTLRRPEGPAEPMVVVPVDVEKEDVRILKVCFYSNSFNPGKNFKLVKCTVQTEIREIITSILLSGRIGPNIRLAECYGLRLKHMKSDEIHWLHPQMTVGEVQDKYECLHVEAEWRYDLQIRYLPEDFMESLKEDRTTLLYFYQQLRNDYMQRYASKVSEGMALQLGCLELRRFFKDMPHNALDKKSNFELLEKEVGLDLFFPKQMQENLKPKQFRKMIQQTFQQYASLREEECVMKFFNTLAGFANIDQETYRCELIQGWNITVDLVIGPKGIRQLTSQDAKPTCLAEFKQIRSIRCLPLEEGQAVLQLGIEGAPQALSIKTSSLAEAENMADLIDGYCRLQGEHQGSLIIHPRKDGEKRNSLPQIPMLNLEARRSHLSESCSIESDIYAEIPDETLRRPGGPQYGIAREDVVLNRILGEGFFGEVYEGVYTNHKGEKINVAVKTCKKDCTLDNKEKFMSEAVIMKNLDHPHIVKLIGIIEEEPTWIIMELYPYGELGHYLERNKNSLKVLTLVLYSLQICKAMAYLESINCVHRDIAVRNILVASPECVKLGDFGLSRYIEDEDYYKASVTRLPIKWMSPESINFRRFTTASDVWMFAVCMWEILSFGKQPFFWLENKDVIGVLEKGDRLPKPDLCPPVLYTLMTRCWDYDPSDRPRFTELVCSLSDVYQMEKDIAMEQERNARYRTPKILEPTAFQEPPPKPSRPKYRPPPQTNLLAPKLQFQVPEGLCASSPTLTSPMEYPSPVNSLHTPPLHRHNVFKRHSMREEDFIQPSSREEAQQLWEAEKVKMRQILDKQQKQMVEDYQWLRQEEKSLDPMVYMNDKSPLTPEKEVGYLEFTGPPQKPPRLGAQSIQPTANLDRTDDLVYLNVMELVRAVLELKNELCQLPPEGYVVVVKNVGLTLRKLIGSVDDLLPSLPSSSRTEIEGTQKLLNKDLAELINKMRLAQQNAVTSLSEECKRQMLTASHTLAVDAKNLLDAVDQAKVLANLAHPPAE

PTK6 (human) = PTK6 (human) (UniProt Q13882)
SRMS (human) = SRMS (human) (UniProt Q9H3Y6)
SRPK2 (human) = SRPK2 (human) (UniProt P78362)
STK17B (human) = STK17B (human) (UniProt O94768)
STK32C (human) = STK32C (human) (UniProt Q86UX6)
STK32C (human), sequence (Q86UX6 whole entry, looked up): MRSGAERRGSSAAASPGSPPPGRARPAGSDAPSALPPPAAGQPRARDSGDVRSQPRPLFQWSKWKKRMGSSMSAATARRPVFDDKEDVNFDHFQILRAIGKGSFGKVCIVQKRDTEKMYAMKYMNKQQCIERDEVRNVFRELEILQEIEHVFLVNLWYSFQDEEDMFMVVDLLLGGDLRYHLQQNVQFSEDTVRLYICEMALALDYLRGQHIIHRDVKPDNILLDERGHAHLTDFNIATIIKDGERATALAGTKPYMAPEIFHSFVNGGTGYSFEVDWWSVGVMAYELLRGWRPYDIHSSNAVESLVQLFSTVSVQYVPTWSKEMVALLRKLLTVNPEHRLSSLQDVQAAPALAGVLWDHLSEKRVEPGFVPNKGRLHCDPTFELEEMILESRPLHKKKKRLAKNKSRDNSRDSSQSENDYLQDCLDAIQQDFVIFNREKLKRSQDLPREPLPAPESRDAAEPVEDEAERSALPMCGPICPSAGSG

TAOK1 (human) = TAOK1 (human) (UniProt Q7L7X3)
TAOK1 (human), sequence (Q7L7X3 whole entry, looked up): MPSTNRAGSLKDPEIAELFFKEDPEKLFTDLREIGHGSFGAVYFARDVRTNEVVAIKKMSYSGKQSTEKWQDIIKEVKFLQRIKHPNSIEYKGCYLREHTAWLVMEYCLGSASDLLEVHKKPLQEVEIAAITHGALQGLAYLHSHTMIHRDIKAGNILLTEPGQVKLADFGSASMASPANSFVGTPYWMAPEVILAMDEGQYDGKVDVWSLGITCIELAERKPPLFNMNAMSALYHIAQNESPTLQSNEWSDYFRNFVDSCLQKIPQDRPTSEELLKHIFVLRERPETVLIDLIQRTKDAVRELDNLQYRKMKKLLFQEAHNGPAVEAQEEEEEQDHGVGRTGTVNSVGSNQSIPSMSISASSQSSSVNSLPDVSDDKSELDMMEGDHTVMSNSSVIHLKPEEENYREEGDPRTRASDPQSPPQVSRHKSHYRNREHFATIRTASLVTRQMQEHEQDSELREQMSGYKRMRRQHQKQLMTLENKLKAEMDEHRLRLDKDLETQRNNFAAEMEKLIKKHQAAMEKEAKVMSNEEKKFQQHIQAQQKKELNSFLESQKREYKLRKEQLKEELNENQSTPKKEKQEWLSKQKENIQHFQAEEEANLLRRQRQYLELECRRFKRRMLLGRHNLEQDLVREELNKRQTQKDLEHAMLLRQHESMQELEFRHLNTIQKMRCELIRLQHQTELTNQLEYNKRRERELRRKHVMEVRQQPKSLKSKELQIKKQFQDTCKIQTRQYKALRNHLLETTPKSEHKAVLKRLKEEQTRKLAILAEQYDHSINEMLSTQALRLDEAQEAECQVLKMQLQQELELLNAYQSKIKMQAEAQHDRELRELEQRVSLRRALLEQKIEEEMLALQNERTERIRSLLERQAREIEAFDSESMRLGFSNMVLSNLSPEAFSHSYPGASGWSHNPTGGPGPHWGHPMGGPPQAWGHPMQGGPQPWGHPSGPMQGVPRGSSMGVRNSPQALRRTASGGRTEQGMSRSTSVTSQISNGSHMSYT

TNIK (human) = TNIK (human) (UniProt Q9UKE5)
TNK2 (human) = TNK2 (human) (UniProt Q07912)
ZAP70 (human) = ZAP70 (human) (UniProt P43403)

AURKA (human), sequence (O14965 whole entry, looked up): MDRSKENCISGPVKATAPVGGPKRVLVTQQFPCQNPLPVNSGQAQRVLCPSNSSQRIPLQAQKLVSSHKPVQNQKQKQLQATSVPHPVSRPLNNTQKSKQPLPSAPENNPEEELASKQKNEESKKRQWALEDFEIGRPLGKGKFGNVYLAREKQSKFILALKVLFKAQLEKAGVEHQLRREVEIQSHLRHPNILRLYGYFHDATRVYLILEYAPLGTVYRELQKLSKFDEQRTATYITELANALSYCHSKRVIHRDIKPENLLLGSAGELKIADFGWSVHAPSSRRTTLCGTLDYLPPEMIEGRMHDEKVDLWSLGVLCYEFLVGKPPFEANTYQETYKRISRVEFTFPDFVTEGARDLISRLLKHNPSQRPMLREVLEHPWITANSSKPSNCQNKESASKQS

| SMILES | kinase still bound, per cent of control (ADCK4 (human)) | kinase still bound, per cent of control (AURKA (human)) | kinase still bound, per cent of control (CAMK2D (human)) | kinase still bound, per cent of control (CAMK4 (human)) | kinase still bound, per cent of control (CDC2L2 (human)) | kinase still bound, per cent of control (CHEK1 (human)) | kinase still bound, per cent of control (CHUK (human)) | kinase still bound, per cent of control (CSNK1A1L (human)) | kinase still bound, per cent of control (DCLK3 (human)) | kinase still bound, per cent of control (EPHA1 (human)) | kinase still bound, per cent of control (FLT4 (human)) | kinase still bound, per cent of control (HCK (human)) | kinase still bound, per cent of control (IGF1R (human)) | kinase still bound, per cent of control (INSRR (human)) | kinase still bound, per cent of control (LTK (human)) | kinase still bound, per cent of control (MAP4K4 (human)) | kinase still bound, per cent of control (MAPK1 (human)) | kinase still bound, per cent of control (MAPK10 (human)) | kinase still bound, per cent of control (MAPK11 (human)) | kinase still bound, per cent of control (MAPK12 (human)) | further results |
| --- | --- | --- | --- | --- | --- | --- | --- | --- | --- | --- | --- | --- | --- | --- | --- | --- | --- | --- | --- | --- | --- |
| C[C@@H](Oc1cc(-n2cnc3ccc(CN4CCN(C)CC4)cc32)sc1C(N)=O)c1ccccc1C(F)(F)F | 58% | 100% | 7.3% | 100% | 100% | 100% | 65% | 84% | 72% | 94% | 63% | 100% | 100% | 100% | 100% | 64% | 100% | 100% | 100% | 95% | kinase still bound, per cent of control (MAPK8 (human)): 100%; kinase still bound, per cent of control (MINK1 (human)): 29%; kinase still bound, per cent of control (MLTK (human)): 100%; kinase still bound, per cent of control (MST1R (human)): 100%; kinase still bound, per cent of control (MYLK2 (human)): 61%; kinase still bound, per cent of control (PAK3 (human)): 96%; kinase still bound, per cent of control (PAK7 (human)): 60%; kinase still bound, per cent of control (PHKG2 (human)): 43%; kinase still bound, per cent of control (PIM3 (human)): 11%; kinase still bound, per cent of control (PRKAA1 (human)): 57%; kinase still bound, per cent of control (PTK2B (human)): 82%; kinase still bound, per cent of control (PTK6 (human)): 93%; kinase still bound, per cent of control (SRMS (human)): 74%; kinase still bound, per cent of control (SRPK2 (human)): 59%; kinase still bound, per cent of control (STK17B (human)): 100%; kinase still bound, per cent of control (STK32C (human)): 100%; kinase still bound, per cent of control (TAOK1 (human)): 14%; kinase still bound, per cent of control (TNIK (human)): 78%; kinase still bound, per cent of control (TNK2 (human)): 100%; kinase still bound, per cent of control (ZAP70 (human)): 69% |
| CN(C)C/C=C/C(=O)Nc1cccc(Nc2ncc3c(n2)N(C)c2ccccc2C(=O)N3C)c1 | 100% | 0.65% | 62% | 100% | 100% | 8.5% | 100% | 100% | 0.5% | 55% | 100% | 13% | 100% | 100% | 100% | 50% | 100% | 80% | 89% | 83% | kinase still bound, per cent of control (MAPK8 (human)): 91%; kinase still bound, per cent of control (MINK1 (human)): 29%; kinase still bound, per cent of control (MLTK (human)): 79%; kinase still bound, per cent of control (MST1R (human)): 93%; kinase still bound, per cent of control (MYLK2 (human)): 46%; kinase still bound, per cent of control (PAK3 (human)): 14%; kinase still bound, per cent of control (PAK7 (human)): 36%; kinase still bound, per cent of control (PHKG2 (human)): 25%; kinase still bound, per cent of control (PIM3 (human)): 100%; kinase still bound, per cent of control (PRKAA1 (human)): 0.45%; kinase still bound, per cent of control (PTK2B (human)): 74%; kinase still bound, per cent of control (PTK6 (human)): 37%; kinase still bound, per cent of control (SRMS (human)): 57%; kinase still bound, per cent of control (SRPK2 (human)): 100%; kinase still bound, per cent of control (STK17B (human)): 100%; kinase still bound, per cent of control (STK32C (human)): 93%; kinase still bound, per cent of control (TAOK1 (human)): 0.15%; kinase still bound, per cent of control (TNIK (human)): 29%; kinase still bound, per cent of control (TNK2 (human)): 4.4%; kinase still bound, per cent of control (ZAP70 (human)): 60% |
| Cc1ccc2nc(NCCN)c3ncc(C)n3c2c1 | 24% | 100% | 100% | 100% | 1% | 91% | 86% | 100% | 76% | 79% | 100% | 100% | 90% | 100% | 95% | 100% | 97% | 100% | 87% | 100% | kinase still bound, per cent of control (MAPK8 (human)): 66%; kinase still bound, per cent of control (MINK1 (human)): 100%; kinase still bound, per cent of control (MLTK (human)): 96%; kinase still bound, per cent of control (MST1R (human)): 100%; kinase still bound, per cent of control (MYLK2 (human)): 71%; kinase still bound, per cent of control (PAK3 (human)): 62%; kinase still bound, per cent of control (PAK7 (human)): 100%; kinase still bound, per cent of control (PHKG2 (human)): 79%; kinase still bound, per cent of control (PIM3 (human)): 92%; kinase still bound, per cent of control (PRKAA1 (human)): 82%; kinase still bound, per cent of control (PTK2B (human)): 100%; kinase still bound, per cent of control (PTK6 (human)): 99%; kinase still bound, per cent of control (SRMS (human)): 90%; kinase still bound, per cent of control (SRPK2 (human)): 89%; kinase still bound, per cent of control (STK17B (human)): 100%; kinase still bound, per cent of control (STK32C (human)): 94%; kinase still bound, per cent of control (TAOK1 (human)): 66%; kinase still bound, per cent of control (TNIK (human)): 100%; kinase still bound, per cent of control (TNK2 (human)): 100%; kinase still bound, per cent of control (ZAP70 (human)): 100% |
